Experimental data published in article PMC11656837, “pH-Responsive Peptide Nanoparticles Deliver Macromolecules to Cells via Endosomal Membrane Nanoporation” (ACS Nano, 2024).

Experiments:
HeLa cells [1] = assay: Cytosolic delivery of AF488-dextran 10 kDa (confocal microscopy); format: cell-based, human
Method: Just before imaging, cell nuclei were stained with Hoechst 33342 (blue); the external AF488-dextran was washed away, and AF647-dextran (lavender) was added to mark the extracellular spaces and cell boundaries. […] Individual intensity scans across single cells, indicated by the yellow arrows, are plotted in Figure 5E,F as examples. To measure cytosolic dextran concentrations, dextran intensity was measured in the external spaces, where it is at background levels and in puncta-free, nuclear/cytosolic areas of each cell.
These experiments were done using a very low solution concentration of 0.1 μM AF488-dextran 10 kDa to minimize any possible self-quenching in endosomes and to minimize any osmotic effect of the dextran on endosomal stability. […] Before imaging, the AF488-dextran was washed off, and Cascade Blue dextran 10 kDa was added to mark the external spaces and cell boundaries. […] Dextran delivered to the cytosol and nucleus, which was the only intensity that we measured in Figure 6A,B, was identified by its diffuse and uniform intensity in the nucleus and cytosol of each cell. In Figure 6E, cytosolic and nuclear concentrations of dextran are expressed as a percent of the external concentration incubated with cells based on comparison to a standard curve of fluorescence intensity versus concentration that was measured separately at the same instrument settings.
After overnight incubation, external AF488-dextran (green) was washed off and replaced with Cascade Blue dextran (blue) or AF647-dextran (lavender) just before imaging to mark the external spaces and cell boundaries. Cells were also treated with Hoechst 33342 (blue) to stain the nuclei. Quantitation was performed by generating a standard curve from microscopy images of solutions of AF488-dextran of known concentrations. For quantification, we noted the intensity of the cell nuclei. Multiple small circular areas of interest of a preset size were selected in cells in areas that were in the nucleus or had no obvious puncta. The same was done for the standard curve images. The fluorescence of each point of interest was quantified using the Nikon Elements software, and the concentration was determined using a standard curve and expressed as a percent of the initial incubating concentration.

HeLa cells [2] = assay: Cytosolic delivery of green fluorescent protein (confocal microscopy); format: cell-based, human; conditions: 25 μM peptide, 10 μM external GFP, overnight, 37 °C
Method: To validate the dextran delivery experiments, we also delivered two separate fluorescent proteins of ∼27 kDa molecular weight to the cytosol of two different cell lines using C16-D-pHD108 (see Figure 7). HeLa cells were incubated overnight with 10 μM green fluorescent protein (GFP), and Chinese Hamster Ovary (CHO) cells were incubated overnight with 3.5 μM yellow fluorescent protein (YFP), with and without 25 μM C16-D-pHD108. Just before imaging, external GFP and YFP were washed off and replaced with TAMRA-dextran (red) or fluorescent protein mTurquoise (blue), respectively, to mark the cell boundaries and extracellular spaces. […] These cells, especially those incubated with the higher 10 μM concentration of GFP, show endosomes with entrapped FP, just as we observed for dextran delivery. […] The apparent nuclear concentration of GFP in cells incubated with GFP but no peptide is indistinguishable from the background. […]
For fluorescent protein or fluorescein-(Fab)2 fragment delivery, HeLa cells were incubated at 37 °C overnight in the presence of GFP with and without C16-D-pHD108 and CHO cells were incubated at 37 °C overnight with YFP in the presence and absence of C16-D-pHD108. […] Quantitation of delivered protein was performed by comparing measured intensities from microscopy images of standard protein solutions of known concentrations.

[3] = Method: This was done by incubating 50 μM peptide under each experimental condition for 60 min, followed by centrifugation at 1400g to remove large aggregates, and by subsequent centrifugation at 11,000g to remove intermediate aggregates. Peptide concentration in solution before and after centrifugation was determined by reverse phase HPLC.
Dried peptides were reconstituted in 50 μL of PBS at pH 7 or at pH 5. The solutions were bath-sonicated briefly and incubated at room temperature for 30 min. Three aliquots of each sample were removed for analysis: one before centrifugation, one after centrifugation for 5 min at 1400g, and one after centrifugation for 10 min at 11,000g. These aliquots were diluted and analyzed by reverse phase HPLC. The integrated peak area of the tryptophan fluorescence peak was determined for each sample.

SMILES: CCCCCCCCCCCCCCCC(=O)NCC(=O)N[C@@H](C(=O)NCC(=O)N[C@H](CCC(=O)O)C(=O)N[C@@H](C(=O)N[C@H](CC(C)C)C(=O)N[C@H](Cc1c[nH]cn1)C(=O)N[C@H](CCC(=O)O)C(=O)N[C@H](CC(C)C)C(=O)N[C@H](C)C(=O)N[C@H](CCC(=O)O)C(=O)NCC(=O)N[C@H](CC(C)C)C(=O)N1CCC[C@@H]1C(=O)N[C@H](CCC(=O)O)C(=O)N[C@H](CC(C)C)C(=O)N[C@H](CCC(N)=O)C(=O)N[C@H](CCC(=O)O)C(=O)N[C@H](Cc1c[nH]c2ccccc12)C(=O)N[C@@H](C(=O)N[C@H](Cc1c[nH]cn1)C(=O)N[C@H](C)C(=O)N[C@H](C)C(=O)N[C@H](CCC(N)=O)C(=O)N[C@H](CCC(N)=O)C(=O)N[C@H](CC(C)C)C(N)=O)[C@H](C)CC)C(C)C)[C@H](C)CC [C16-D-pHD108]
- cytosolic dextran concentration (HeLa cells [1]; 3 μM peptide, 0.1 μM AF488-dextran 10 kDa, overnight, 37 °C): Low but statistically significant
- cytosolic dextran concentration, average, percent of applied external concentration (HeLa cells [1]; 25 μM peptide, 0.1 μM AF488-dextran 10 kDa, overnight, 37 °C, ~50 cells): about 12%
- dextran staining of nucleus and cytosol (HeLa cells [1]; 25 μM peptide, 25 μM AF488-dextran 10 kDa, overnight, 37 °C): diffusely and uniformly stained with dextran
- delivery of dextran to the cytosol at 4 °C (HeLa cells [1]; 25 μM peptide, 4 °C): does not enable any measurable delivery of dextran to the cytosol
- plasma membrane permeabilization (entry of Cascade Blue dextran added before imaging) (HeLa cells [1]; 25 μM peptide, 37 °C): not permeabilized
- cytosolic delivery of AF488-dextran, C16-L-pHD108 compared with C16-D-pHD108 (HeLa cells [1]; HeLa, overnight, 37 °C): significantly more active
- GFP concentration delivered to cell cytosol, median (HeLa cells [2]): about 2 μM
- GFP delivered to cytosol, median as percent of the external concentration (HeLa cells [2]): ~20%
- solubility after dissolving at pH 7 and decreasing to pH 5 ([3]; 50 μM, pH 7 then pH 5, centrifugation, reverse phase HPLC): became insoluble
- solubility at pH 5 ([3]; from dried peptide, 50 μM in PBS pH 5, centrifugation 1400g then 11,000g, reverse phase HPLC): almost none of the peptides went into solution
- solubility and stability to centrifugation at pH 7 ([3]; from dried peptide, 50 μM in PBS pH 7, bath sonication, 60 min, room temperature, centrifugation 1400g then 11,000g, reverse phase HPLC (Trp fluorescence peak area)): remains soluble at pH 7 and is not removed by centrifugation
- solubility in buffer / PBS at pH 7 ([3]; pH 7, buffer or PBS): soluble in PBS and remained in solution at pH 7 for days
